Measurements taken from patent publication US20090274626A1, “TARGETING TNF-alpha CONVERTING ENZYME(TACE)- DEPENDENT GROWTH FACTOR SHEDDING IN CANCER THERAPY” (The Regents of the University of California, priority 2005, published 2009).
“Also recorded” adds a separate entry of the source.

Experiments:
[1] = tested on: T4-2 cells; experiment: 3D lrECM (Matrigel) culture of T4-2 cells: reversion of malignant phenotype, polarity, colony size; format: cell-based, human
Protocol: (§1) For 3D lrECM culture, T4-2 cells were seeded at 21000 cells per cm^2 on top of Matrigel, overlaid with H14 medium containing 5% Matrigel (BD Biosciences, San Jose, Calif.), and treated with 80 nM AG1478, 20 μM TAPI-2 or the relevant vehicle controls.
(§2) Silencer™ siRNAs against TACE (Ambion, Austin, Tex.) were also transfected in according to the Reverse Transfection protocol of Invitrogen. siRNAs against the following TACE sense strand sequences were transfected either individually (100 nM) or as a pool (33.3 nM each): […]tt (SEQ ID NO: 2), GCAGCAt[…]tt (SEQ ID NO:3) and […]tt (SEQ ID NO: 4). For 3D culture assays, T4-2 cells were trypsinized post-transfection and plated as single cells in Matrigel. Knockdown was assessed by western blot from a parallel transfection 48 hrs post-transfection. Random siRNA sequence was used as a negative control.
Indirect immunofluorescence. Colonies were solubilized from […] culture by shaking in PBS/0.05M EDTA on ice for 30 mins, fixed in 4% paraformaldehyde, permeabilized, stained with anti-α6-integrin (Chemicon, Temecula, Calif.) and counterstained with DAPI.
(§3) Quantitation of colony size in the 3D lrECM culture was performed by image analysis. Representative images were captured using a digital camera attached to a phase contrast microscope. The high resolution digital images were then analyzed using NIH Image analysis software and the cross-sectional area of each colony was determined for many colonies. This process was hand-curated to ensure that aggregates of colonies were not measured as a single colony.

[2] = tested on: T4-2 cells; experiment: Proliferation assay (WST) of T4-2 cells in 2D culture; format: cell-based, human
Protocol: Proliferation assays. HMT3522 cells were seeded in 96 well plates and treated (in triplicate) as described in the figure legends. To determine relative growth, 0.1 volumes of WST cell proliferation analysis reagent (Roche, Indianapolis, Ind.) was added to the medium and its formazan metabolite was measured by absorbance at 460 nm.

[3] = tested on: T4-2 cells; experiment: ELISA of AREG and TGFα shed into conditioned medium of T4-2 cells; format: cell-based, human; conditions: TAPI-2-treated T4-2 cells
Protocol: as §2
(§4) ELISA. Equal numbers of cells were washed three times and allowed to condition medium for 90 minutes. The amount of AREG and TGFα accumulating in the medium was determined by using specific ELISA assays (R & D Systems, Minneapolis, Minn.) according to the manufacturer's instructions.

[4] = tested on: signaling kinases downstream of the EGFR; experiment: Western blot of basal activity of signaling kinases downstream of the EGFR in T4-2 cells; format: cell-based, human; conditions: addition of TAPI-2
Protocol: Western blotting. Cells were lysed in 50 mM Tris.HCl pH 7.5, 150 mM NaCl, 0.5% NP40 supplemented with protease and phosphatase inhibitors (Calbiochem, San Diego, Calif.) and clarified by centrifugation. 50 μg of each sample was fractionated by SDS-PAGE, transferred to nitrocellulose membranes and probed with antibodies against the following proteins: phospho-MAPK, Total MAPK, phospho-p70S6-Kinase, (Cell Signaling Technology, MA). E-cadherin (BD Biosciences, CA) was used as a loading control. Blots were developed using Supersignal West Femto (Pierce, Rockland, Ill.). Images were captured using a Fluor Chem 8900 imager (Alpha Innotech, San Leandro, Calif.).

[5] = tested on: T4-2 cells; experiment: Relative proliferation of T4-2 cells with AG 1478 with or without TAPI-2 (sensitization, FIG. 5); format: cell-based, human; conditions: 10 μM TAPI-2; shift of AG 1478 proliferation curve
Protocol: FIG. 5. […] T4-2 cells were allowed to adhere to 48 well plates. Drugs were added at the indicated concentrations. Conditions were analyzed in triplicate. For comparison, all data were normalized to the 100%.
(FIG. 5) In this experiment, T4-2 cells were allowed to adhere to 48 well plates. Drugs, AG 1478 and TAPI-2, were added at various concentrations of 0.001 μM, 0.01 μM, 0.1 μM, 1 μM, 10 μM and 100 μM. Conditions were analyzed in triplicate. For comparison, all data were normalized to the 100%.

[6] = tested on: T4-2 cells; experiment: Cytotoxicity of TAPI-2 at the concentration used; format: cell-based, human; conditions: data not shown
[7] = tested on: S1 cells; experiment: Acinar morphogenesis of S1 cells in the presence of soluble EGF; format: cell-based, human; conditions: data not shown
Protocol: Cell culture All reagents were purchased from SIGMA (St. Louis, Mo.) except where otherwise noted. HMT3522 cells were cultivated on 2D and 3D substrata in H14 medium, a 50:50 mix of DMEM/F12 (UCSF Cell culture Facility, San Francisco, Calif.) supplemented with 5 μg/ml prolactin, 250 ng/ml insulin, 1.4×10^−6 M hydrocortisone, 10^−10 M β-estradiol, 2.6 ng/ml sodium selenite and 10 μg/ml transferrin. S1 cells were additionally supplemented with 10 ng/ml EGF. In various experiments, cells were supplemented with AREG, TACE, TGFα. In all cases, AREG and TGFα were used at the same molar concentration as EGF ([…]).

[8] = tested on: T4-2 cells; experiment: ELISA of EGFR ligands in conditioned medium of T4-2 3D lrECM cultures; format: cell-based, human; conditions: TAPI-2 treatment as printed in legend
Protocol: as §2, §4

[9] = tested on: T4-2 cells expressing AREGΔTM; experiment: 3D culture of T4-2 cells expressing soluble AREG (AREGΔTM): colony size and morphology; format: cell-based, human; conditions: T4-2 cells producing soluble AREG
Protocol: as §1
(§5) Amphotropic retroviruses were generated by transfection (Lipofectamine; Invitrogen, Carlsbad, Calif.) of the Phoenix packaging cell line (a gift of Dr. Gary Nolan, Stanford) with pBM-IRES-Puro or derivatives containing the AREG or TGFα open reading frames. Two million phoenix cells per 6 cm dish were plated the day prior to transfection and transfected with 2 μg of the appropriate retroviral construct. Retrovirus-containing culture medium was harvested after 48 hrs, supplemented with polybrene to 5 μg/ml and added to HMT3522 cells at 30-50% confluence. Pools of stable infectants were selected in 1 μg/ml puromycin.
(§6) Cloning of pro-AREG and pro-TGFα. The open reading frames of these genes were amplified by PCR from T4-2 cDNA. […]
as §3, with “Representative images were captured using a digital camera attached to a phase contrast microscope.” left out

[10] = tested on: T4-2 cells expressing TGFαΔTM; experiment: 3D culture of T4-2 cells expressing soluble TGFα (TGFαΔTM): colony size and morphology; format: cell-based, human; conditions: T4-2 cells producing soluble TGFα
Protocol: as §1, §5, §6
as §3, with “Representative images were captured using a digital camera attached to a phase contrast microscope.” left out

[11] = tested on: MCF-7; experiment: ELISA of AREG shedding from MCF-7 cells; format: cell-based, human; conditions: MCF-7, 20 μM TAPI-2, 90 minutes
Protocol: (§7) FIG. 8. Suppression of growth factor shedding by TAPI-2 in a panel of breast cancer cell lines. A: Three AREG-expressing breast cancer cell lines were identified. Equal number of cells were treated with 20 μM TAPI-2 or vehicle for 90 minutes and AREG shedding was quantified by ELISA. B: Two breast cancer cell lines expressing TGFα were identified and treated as described in (A). TAPI-2 suppresses TGFα shedding.
as §4

[12] = tested on: HCC1500; experiment: ELISA of AREG and TGFα shedding from HCC1500 cells; format: cell-based, human; conditions: HCC1500, 20 μM TAPI-2, 90 minutes
Protocol: as §7, §4

[13] = tested on: ZR75B; experiment: ELISA of AREG shedding from ZR75B cells; format: cell-based, human; conditions: 20 μM TAPI-2, 90 minutes
Protocol: as §7, §4

[14] = tested on: MDA-MB-468; experiment: ELISA of TGFα shedding from MDA-MB-468 cells; format: cell-based, human; conditions: MDA-MB-468, 20 μM TAPI-2, 90 minutes
Protocol: as §7, §4

[15] = target: TACE (Homo sapiens, UniProt P78536); conditions: cited from earlier work
[16] = tested on: LPS-stimulated human peripheral blood mononuclear cells (PBMC); conditions: cited from earlier work

TACE, sequence (P78536 215-824): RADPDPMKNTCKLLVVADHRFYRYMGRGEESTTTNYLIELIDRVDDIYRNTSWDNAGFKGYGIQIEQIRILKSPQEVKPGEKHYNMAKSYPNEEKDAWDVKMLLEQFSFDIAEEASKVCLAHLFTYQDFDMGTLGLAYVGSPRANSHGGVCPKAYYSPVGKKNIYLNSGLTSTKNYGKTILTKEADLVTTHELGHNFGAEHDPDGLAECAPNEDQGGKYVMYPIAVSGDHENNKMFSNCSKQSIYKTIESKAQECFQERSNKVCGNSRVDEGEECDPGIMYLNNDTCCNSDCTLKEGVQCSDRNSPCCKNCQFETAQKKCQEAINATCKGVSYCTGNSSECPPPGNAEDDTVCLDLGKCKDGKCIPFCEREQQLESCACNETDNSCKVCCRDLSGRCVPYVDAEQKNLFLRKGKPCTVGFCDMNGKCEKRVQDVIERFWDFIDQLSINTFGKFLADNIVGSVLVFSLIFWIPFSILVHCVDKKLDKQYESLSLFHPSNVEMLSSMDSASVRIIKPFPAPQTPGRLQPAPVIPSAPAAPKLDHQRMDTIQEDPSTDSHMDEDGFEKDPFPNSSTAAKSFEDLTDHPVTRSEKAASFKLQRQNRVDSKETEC

**Q.** What does the source list for `CC(C)C[C@H](CC(=O)NO)C(=O)N[C@H](C(=O)N[C@@H](C)C(=O)NCCN)C(C)(C)C` [TAPI-2, N—(R)-[2-(Hydroxyaminocarbonyl)methyl]-4-methylpentanoyl-L-t-butyl-alanyl-L-alanine, 2-aminoethyl Amide]?
**A.** restoration of epithelial polarity (basal localization of α6-integrin) ([1]; 3D culture, TAPI-2 vs vehicle): restoration of epithelial polarity; colony size (cross-sectional area) vs vehicle ([1]; 3D culture, four days, p<0.001): significantly smaller than those formed by cells treated with vehicle alone; also recorded: significantly different from controls; reversion of the malignant phenotype of T4-2 cells ([1]; 3D lrECM culture, 80 nM AG1478 or 20 μM TAPI-2 vs vehicle): resulted in a reversion of the malignant phenotype; TAPI-2-induced reduction of T4-2 proliferation on addition of EGF ([2]; 2D culture, soluble/exogenous EGF added): overcome by addition of exogenous EGF; also recorded: completely overcome by addition of soluble EGF; proliferation of T4-2 cells ([2]; 2D cultures, vs 0 μM TAPI-2): dose-dependent decrease in proliferation; also recorded: dose-dependent reduction in T4-2 cell proliferation; shedding of AREG (ELISA of CM) [3]: suppresses the shedding of both AREG and TGFα; shedding of TGFα (ELISA of CM) [3]: suppresses the shedding of both AREG and TGFα; basal activities of signaling kinases downstream of the EGFR [4]: significantly suppressed; sensitization of T4-2 cells to small molecule EGFR inhibitor (AG1478) [5]: sensitizes T4-2 cells to the effect of the EGFR inhibitor, AG1478; also recorded: four-fold sensitization; cytotoxicity [6]: not cytotoxic at the concentration used; interference with normal acinar morphogenesis of S1 cells [7]: nor did it interfere with the ability of S1 cells to execute normal acinar morphogenesis; levels of shed ligands in conditioned medium (FIG. 6C) [8]: reduced; response to TAPI-2 by criteria of colony size and morphology [9]: completely resistant to TAPI-2; response to TAPI-2 by criteria of colony size and morphology [10]: completely resistant to TAPI-2; AREG shedding [11]: significantly reduced ligand shedding; AREG shedding [12]: significantly reduced ligand shedding; TGFα shedding [12]: significantly reduced ligand shedding; AREG shedding [13]: significantly reduced ligand shedding; TGFα shedding [14]: significantly reduced ligand shedding

**Q.** With “TRWLVYFSRPYLVAT (synthetic peptide shown to inhibit TACE activity)” as the compound, how does the “binding to TACE” value [15] read?
**A.** The value was “bind to TACE”.

**Q.** What about the TNF-alpha release [16] of the same compound?
**A.** Its TNF-alpha release is “inhibit the TNF-alpha release”.
